The target in the first test is human capsaicin receptor (VR1) (Homo sapiens, UniProt Q8NER1). The test can be described thus: Capsaicin receptor binding assay ([3H]RTX competition, VR1-transfected HEK293 membranes).
Chain of human capsaicin receptor (VR1) (Q8NER1 whole entry): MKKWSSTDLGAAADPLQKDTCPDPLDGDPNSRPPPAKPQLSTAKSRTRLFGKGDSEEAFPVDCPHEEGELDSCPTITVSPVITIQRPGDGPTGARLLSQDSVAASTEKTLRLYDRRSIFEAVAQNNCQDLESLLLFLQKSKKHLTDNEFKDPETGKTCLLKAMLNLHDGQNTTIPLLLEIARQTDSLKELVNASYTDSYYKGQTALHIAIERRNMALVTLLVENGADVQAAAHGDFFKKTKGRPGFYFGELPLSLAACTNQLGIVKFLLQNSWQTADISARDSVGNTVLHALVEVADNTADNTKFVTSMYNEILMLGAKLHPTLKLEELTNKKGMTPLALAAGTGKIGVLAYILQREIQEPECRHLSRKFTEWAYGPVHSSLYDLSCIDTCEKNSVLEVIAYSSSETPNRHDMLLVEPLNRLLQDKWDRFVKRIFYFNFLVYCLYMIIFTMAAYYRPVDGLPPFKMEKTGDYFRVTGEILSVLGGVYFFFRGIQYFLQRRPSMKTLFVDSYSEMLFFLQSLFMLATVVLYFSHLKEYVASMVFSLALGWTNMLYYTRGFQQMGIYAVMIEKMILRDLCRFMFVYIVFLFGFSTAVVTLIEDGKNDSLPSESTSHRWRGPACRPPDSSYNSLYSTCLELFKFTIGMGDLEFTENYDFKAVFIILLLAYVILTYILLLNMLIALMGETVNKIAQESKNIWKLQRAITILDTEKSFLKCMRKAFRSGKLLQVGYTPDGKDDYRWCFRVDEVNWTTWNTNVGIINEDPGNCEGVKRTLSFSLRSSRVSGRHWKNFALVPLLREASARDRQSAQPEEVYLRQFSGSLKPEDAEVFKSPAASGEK
Conditions: not given
On to `CN1CCN(Cc2nc(Nc3ccc(C(F)(F)F)cn3)c3ccc(-c4ncccc4C(F)(F)F)cc3n2)CC1` [Compound 522, [2-(4-Methyl-piperazin-1-ylmethyl)-7-(3-trifluoromethyl-pyridin-2-yl)-quinazolin-4-yl]-(5-trifluoromethyl-pyridin-2-yl)-amine], for which the inhibition constant (Ki) (usually the equilibrium dissociation constant of an inhibitor or competing ligand from its target) is under 1000 nM.
Consider `CC(c1ccc(Nc2nc(CN3CCCCC3)nc3cc(-c4ncccc4C(F)(F)F)ccc23)cc1)C(F)(F)F` (centres unmarked) [Compound 523, [2-Piperidin-1-ylmethyl-7-(3-trifluoromethyl-pyridin-2-yl)-quinazolin-4-yI]-[4-(2,2,2-trifluoro-1-methyl-ethyl)-phenyl]-amine], for which the inhibition constant (Ki) is under 1000 nM.
`CC(c1ccc(Nc2nc(CN3CCOCC3)nc3cc(-c4ncccc4C(F)(F)F)ccc23)cc1)C(F)(F)F` (centres unmarked) [Compound 524, [2-Morpholin-4-ylmethyl-7-(3-trifluoromethyl-pyridin-2-yl)-quinazolin-4-yl]-[4-(2,2,2-trifluoro-1-methyl-ethyl)-phenyl]-amine] showed a Ki of under 1000 nM.
The molecule `CC1CN(Cc2nc(Nc3ccc(C(C)C(F)(F)F)cc3)c3ccc(-c4ncccc4C(F)(F)F)cc3n2)CC(C)O1` (centres unmarked) [Compound 525, [2-(2,6-Dimethyl-morpholin-4-ylmethyl)-7-(3-trifluoromethyl-pyridin-2-yl)-quinazolin-4-yl]-[4-(2,2,2-trifluoro-1-methyl-ethyl)-phenyl]-amine] came in with a Ki of under 1000 nM.
For `CC(c1ccc(Nc2nc(CN3CCN(C)CC3)nc3cc(-c4ncccc4C(F)(F)F)ccc23)cc1)C(F)(F)F` (centres unmarked) [Compound 526, [2-(4-Methyl-piperazin-1-ylmethyl)-7-(3-trifluoromethyl-pyridin-2-yl)-quinazolin-4-yl]-[4-(2,2,2-trifluoro-1-methyl-ethyl)-phenyl]-amine], the inhibitory constant (Ki) was under 1000 nM.
Same read-out and setting: in the case of `COCCN(CCOC)Cc1nc(Nc2ccc(C(C)C(F)(F)F)cc2)c2ccc(-c3ncccc3C(F)(F)F)cc2n1` (centres unmarked) [Compound 527, [2-{[Bis-(2-methoxy-ethyl)-amino]-methyl}-7-(3-trifluoromethyl-pyridin-2-yl)-quinazolin-4-yl]-[4-(2,2,2-trifluoro-1-methyl-ethyl)-phenyl]-amine] it was under 1000 nM.
Molecule `CCNCc1nc(Nc2ccc(C(F)(F)F)cc2)c2ccc(-c3ncccc3C(F)(F)F)cc2n1` [Compound 531, [2-Ethylaminomethyl-7-(3-trifluoromethyl-pyridin-2-yl)-quinazolin-4-yl]-(4-trifluoromethyl-phenyl)-amine] showed an inhibition constant Ki of under 1000 nM.
In turn, `OCCNCc1nc(Nc2ccc(C(F)(F)F)cc2)c2ccc(-c3ncccc3C(F)(F)F)cc2n1` [Compound 534, 2-{[4-(4-Trifluoromethyl-phenylamino)-7-(3-trifluoromethyl-pyridin-2-yl)-quinazolin-2-ylmethyl]-amino}-ethanol] came in with an inhibitory constant (Ki) of under 1000 nM.
As for `COCCNCc1nc(Nc2ccc(C(F)(F)F)cc2)c2ccc(-c3ncccc3C(F)(F)F)cc2n1` [Compound 535, [2-[(2-Methoxy-ethylamino)-methyl]-7-(3-trifluoromethyl-pyridin-2-yl)-quinazolin-4-yl]-(4-trifluoromethyl-phenyl)-amine], the Ki was under 1000 nM.
In the case of `CC(C)CNCc1nc(Nc2ccc(C(F)(F)F)cc2)c2ccc(-c3ncccc3C(F)(F)F)cc2n1` [Compound 536, [2-(Isobutylamino-methyl)-7-(3-trifluoromethyl-pyridin-2-yl)-quinazolin-4-yl]-(4-trifluoromethyl-phenyl)-amine], the Ki is under 1000 nM.
`CC(C)CCNCc1nc(Nc2ccc(C(F)(F)F)cc2)c2ccc(-c3ncccc3C(F)(F)F)cc2n1` [Compound 537, [2-[(3-Methyl-butylamino)-methyl]-7-(3-trifluoromethyl-pyridin-2-yl)-quinazolin-4-yl]-(4-trifluoromethyl-phenyl)-amine] displayed a Ki of under 1000 nM.
Still for that read-out and setting: in the case of `CCCCCCNCc1nc(Nc2ccc(C(F)(F)F)cc2)c2ccc(-c3ncccc3C(F)(F)F)cc2n1` [Compound 539, [2-Hexylaminomethyl-7-(3-trifluoromethyl-pyridin-2-yl)-quinazolin-4-yl]-(4-trifluoromethyl-phenyl)-amine] it was under 1000 nM.
In the case of `CCCCCCCCNCc1nc(Nc2ccc(C(F)(F)F)cc2)c2ccc(-c3ncccc3C(F)(F)F)cc2n1` [Compound 540, [2-Octylaminomethyl-7-(3-trifluoromethyl-pyridin-2-yl)-quinazolin-4-yl]-(4-trifluoromethyl-phenyl)-amine], the Ki is under 1000 nM.
With `FC(F)(F)c1ccc(Nc2nc(CN3CCOCC3)nc3cc(-c4ncccc4C(F)(F)F)cnc23)cn1` [Compound 542, [2-Morpholin-4-ylmethyl-7-(3-trifluoromethyl-pyridin-2-yl)-pyrido[3,2-d]pyrimidin-4-yl]-(6-trifluoromethyl-pyridin-3-yl)-amine], the Ki was under 1000 nM.
In the case of `FC(F)(F)c1ccc(Nc2nc(-c3ccc(N4CCCC4)nc3)nc3cc(-c4ncccc4C(F)(F)F)ccc23)cc1` [Compound 543, [2-(6-Pyrrolidin-1-yl-pyridin-3-yl)-7-(3-trifluoromethyl-pyridin-2-yl)-quinazolin-4-yl]-(4-trifluoromethyl-phenyl)-amine], the Ki is under 1000 nM.
Take `CC1CN(CCCc2nc(Nc3ccc(C(F)(F)F)nc3)c3ccc(-c4ncccc4C(F)(F)F)cc3n2)CC(C)O1` (centres unmarked) [Compound 544, [2-[3-(2,6-Dimethyl-morpholin-4-yl)-propyl]-7-(3-trifluoromethyl-pyridin-2-yl)-quinazolin-4-yl]-(6-trifluoromethyl-pyridin-3-yl)-amine]: the Ki was under 1000 nM.
Molecule `FC(F)(F)c1cccc(Nc2nc(CN3CCOCC3)nc3cc(-c4ncccc4C(F)(F)F)cnc23)n1` [Compound 545, [2-Morpholin-4-ylmethyl-7-(3-trifluoromethyl-pyridin-2-yl)-pyrido[3,2-d]pyrimidin-4-yl]-(6-trifluoromethyl-pyridin-2-yl)-amine] registered an inhibition constant (Ki) of under 1000 nM.
Take `C[C@@H]1CN(Cc2nc(Nc3ccc(C(F)(F)F)cc3)c3ncc(-c4ncccc4C(F)(F)F)cc3n2)C[C@H](C)O1` [Compound 546, [2-(2,6-Dimethyl-morpholin-4-ylmethyl)-7-(3-trifluoromethyl-pyridin-2-yl)-pyrido[3,2-d]pyrimidin-4-yl]-(4-trifluoromethyl-phenyl)-amine (cis)]: the Ki was under 1000 nM.
Molecule `C[C@@H]1CN(Cc2nc(Nc3ccc(C(F)(F)F)nc3)c3ncc(-c4ncccc4C(F)(F)F)cc3n2)C[C@H](C)O1` [Compound 547, [2-(2,6-Dimethyl-morpholin-4-ylmethyl)-7-(3-trifluoromethyl-pyridin-2-yl)-pyrido[3,2-d]pyrimidin-4-yl]-(6-trifluoromethyl-pyridin-3-yl)-amine (cis)] had an inhibition constant Ki of under 1000 nM.
Take `FC(F)(F)c1ccc(Nc2nc(CN3CCSCC3)nc3cc(-c4ncccc4C(F)(F)F)ccc23)cc1` [Compound 548, [2-Thiomorpholin-4-ylmethyl-7-(3-trifluoromethyl-pyridin-2-yl)-quinazolin-4-yl]-(4-trifluoromethyl-phenyl)-amine]: the Ki is under 1000 nM.
On to `CC1(C)CCCN(Cc2nc(Nc3ccc(C(F)(F)F)cc3)c3ccc(-c4ncccc4C(F)(F)F)cc3n2)C1` [Compound 549, [2-(3,3-Dimethyl-piperidin-1-ylmethyl)-7-(3-trifluoromethyl-pyridin-2-yl)-quinazolin-4-yl]-(4-trifluoromethyl-phenyl)-amine], for which the inhibition constant (Ki) was under 1000 nM.
For the molecule `CCCN(CCC)Cc1nc(Nc2ccc(C(F)(F)F)cc2)c2ccc(-c3ncccc3C(F)(F)F)cc2n1` [Compound 550, [2-Dipropylaminomethyl-7-(3-trifluoromethyl-pyridin-2-yl)-quinazolin-4-yl]-(4-trifluoromethyl-phenyl)-amine], the Ki was under 1000 nM.
`CCCN(Cc1nc(Nc2ccc(C(F)(F)F)cc2)c2ccc(-c3ncccc3C(F)(F)F)cc2n1)CC1CC1` [Compound 551, [2-[(Cyclopropylmethyl-propyl-amino)-methyl]-7-(3-trifluoromethyl-pyridin-2-yl)-quinazolin-4-yl]-(4-trifluoromethyl-phenyl)-amine] came in with an inhibition constant Ki of under 1000 nM.
Molecule `CC1CC(C)CN(Cc2nc(Nc3ccc(C(F)(F)F)cc3)c3ccc(-c4ncccc4C(F)(F)F)cc3n2)C1` (centres unmarked) [Compound 552, [2-(3,5-Dimethyl-piperidin-1-ylmethyl)-7-(3-trifluoromethyl-pyridin-2-yl)-quinazolin-4-yl]-(4-trifluoromethyl-phenyl)-amine] showed an inhibition constant (Ki) of under 1000 nM.
The same measure, in the same setting: in the case of `O=S1(=O)CCN(Cc2nc(Nc3ccc(C(F)(F)F)nc3)c3ccc(-c4ncccc4C(F)(F)F)cc3n2)CC1` [Compound 553, [2-(1,1-dioxo-1λ^6-thiomorpholin-4-ylmethyl)-7-(3-trifluoromethyl-pyridin-2-yl)-quinazolin-4-yl]-(6-trifluoromethyl-pyridin-3-yl)-amine] it was under 1000 nM; in that of `FC(F)(F)c1ccc(Nc2nc(CNC3CCSCC3)nc3cc(-c4ncccc4C(F)(F)F)ccc23)cn1` [Compound 554, [2-[(Tetrahydro-thiopyran-4-ylamino)-methyl]-7-(3-trifluoromethyl-pyridin-2-yl)-quinazolin-4-yl]-(6-trifluoromethyl-pyridin-3-yl)-amine], under 1000 nM.
In the case of `FC(F)(F)c1ccc(Nc2nc(CN3CCSCC3)nc3cc(-c4ncccc4C(F)(F)F)ccc23)cn1` [Compound 555, [2-Thiomorpholin-4-ylmethyl-7-(3-trifluoromethyl-pyridin-2-yl)-quinazolin-4-yl]-(6-trifluoromethyl-pyridin-3-yl)-amine], the inhibition constant Ki was under 1000 nM.
The same measure, in the same setting: in the case of `CC1(C)CCCN(Cc2nc(Nc3ccc(C(F)(F)F)nc3)c3ccc(-c4ncccc4C(F)(F)F)cc3n2)C1` [Compound 556, [2-(3,3-Dimethyl-piperidin-1-ylmethyl)-7-(3-trifluoromethyl-pyridin-2-yl)-quinazolin-4-yl]-(6-trifluoromethyl-pyridin-3-yl)-amine] it was under 1000 nM.

Staying with this test, now noted: Table III; capsaicin receptor binding.
For `CCCN(CCC)Cc1nc(Nc2ccc(C(F)(F)F)nc2)c2ccc(-c3ncccc3C(F)(F)F)cc2n1` [Compound 557, [2-Dipropylaminomethyl-7-(3-trifluoromethyl-pyridin-2-yl)-quinazolin-4-yl]-(6-trifluoromethyl-pyridin-3-yl)-amine], the Ki was under 1000 nM.

The record behind these values is patent US20040156869A1, “2-substituted quinazolin-4-ylamine analogues” (Neurogen Corporation, priority 2002, published 2004).
